Reference: patent US20100298141A1, “SUBSTITUTED PYRIDINE N-OXIDE HERBICIDES” (E. I. DU PONT DE NEMOURS AND COMPANY, priority 2007, published 2010)

Tests used:
[1] = system: barnyardgrass; assay: Test C flooded paddy test; assay type: in vivo, Echinochloa crus-galli; conditions: Flood, scale 0 to 100, 0 no effect, 100 complete control, 13 to 15 days
Procedure, shortened: (§1)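 Flooded 3 cm over soil; compound into paddy water; depth kept constant. Greenhouse 13–15 d.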

[2] = system: velvetleaf; assay: Test A pre-/postemergence greenhouse test; assay type: in vivo, Abutilon theophrasti; conditions: for Plant response rating, Velvetleaf: 0 to 100 scale where 0 is no effect and 100 is complete control; for Velvetleaf plant response rating: 0 to 100 scale
Procedure, shortened: (§2)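 Untreated controls served as the reference for visual injury ratings taken about ten days after spraying. The non-phytotoxic solvent/surfactant formulation was applied preemergence to seeded loam and sand and postemergence to plants two to ten cm high.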

[3] = system: lambsquarters; assay: Test C pre-/postemergence test; assay type: in vivo, Chenopodium album
Procedure, shortened: (§3)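 Test chemicals were formulated with surfactant in a non-phytotoxic solvent and sprayed both on freshly planted seeds (preemergence) and on 1- to 4-leaf plants of 2–18 cm (postemergence). Flooded-paddy pots received compound directly into 3 cm of standing water, maintained for the test.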

[4] = system: common ragweed; assay: Test C pre-/postemergence test; assay type: in vivo, Ambrosia elation
Procedure, shortened: as §3

[5] = system: barnyardgrass; assay: Test A pre-/postemergence greenhouse test; assay type: in vivo, Echinochloa crus-galli; conditions: for Plant response rating, Barnyardgrass: 0 to 100 scale where 0 is no effect and 100 is complete control; for Barnyardgrass plant response rating: 0 to 100 scale
Procedure, shortened: as §2

[6] = system: catchweed bedstraw; assay: Test C pre-/postemergence test; assay type: in vivo, Galium aparine
Procedure, shortened: as §3

[7] = system: crabgrass; assay: Test A pre-/postemergence greenhouse test; assay type: in vivo, Digitaria sanguinalis; conditions: for Plant response rating, Crabgrass, Large: 0 to 100 scale where 0 is no effect and 100 is complete control; for Crabgrass, Large plant response rating: 0 to 100 scale
Procedure, shortened: as §2

[8] = system: downy brome; assay: Test C pre-/postemergence test; assay type: in vivo, Bromus tectorum
Procedure, shortened: as §3

[9] = system: pigweed; assay: Test C pre-/postemergence test; assay type: in vivo, Amaranthus retroflexus
Procedure, shortened: as §3

[10] = system: Surinam grass; assay: Test C pre-/postemergence test; assay type: in vivo, Brachiaria decumbens
Procedure, shortened: as §3

[11] = system: duck salad; assay: Test C flooded paddy test; assay type: in vivo, Heteranthera limosa; conditions: Flood, scale 0 to 100, 0 no effect, 100 complete control, 13 to 15 days
Procedure, shortened: as §1

[12] = system: green foxtail; assay: Test C pre-/postemergence test; assay type: in vivo, Setaria viridis
Procedure, shortened: as §3

[13] = system: velvetleaf; assay: Test C pre-/postemergence test; assay type: in vivo, Abutilon theophrasti
Procedure, shortened: as §3

[14] = system: giant foxtail; assay: Test A pre-/postemergence greenhouse test; assay type: in vivo, Setaria faberi; conditions: for Plant response rating, Foxtail, Giant: 0 to 100 scale where 0 is no effect and 100 is complete control; for Foxtail, Giant plant response rating: 0 to 100 scale
Procedure, shortened: as §2

[15] = system: blackgrass; assay: Test C pre-/postemergence test; assay type: in vivo, Alopecurus myosuroides
Procedure, shortened: as §3

[16] = system: woolly cupgrass; assay: Test C pre-/postemergence test; assay type: in vivo, Eriochloa villosa
Procedure, shortened: as §3

[17] = system: soybean; assay: Test C pre-/postemergence test; assay type: in vivo, Glycine max; conditions: for Soybean plant response rating: preemergence, scale 0 (no effect) to 100 (complete control)
Procedure, shortened: as §3

[18] = Postemergence, 500 g ai/ha, 0 is no effect, 100 is complete control
[19] = Preemergence, 125 g ai/ha, 0 no effect, 100 complete control
[20] = 62 g ai/ha, Preemergence, scale 0 to 100
[21] = 125 g ai/ha, preemergence, scale 0 (no effect) to 100 (complete control)
[22] = Postemergence, 62 g ai/ha, scale 0 to 100, 0 no effect, 100 complete control
[23] = Postemergence, 125 g ai/ha, scale 0 to 100, 0 no effect, 100 complete control
[24] = Postemergence, 250 g ai/ha, scale 0 to 100, 0 no effect, 100 complete control
[25] = Preemergence, 31 g ai/ha, scale 0 to 100 (0 no effect, 100 complete control)
[26] = preemergence, 250 g ai/ha, scale 0 (no effect) to 100 (complete control)

[O-][n+]1cc(Cl)ccc1[S+]([O-])Cc1c(C(F)(F)F)nn(CC(F)(F)F)c1Cl (stereo not shown) [Compound 47]
Plant response rating, Barnyardgrass ([1]; 62 g ai/ha): 50
Plant response rating, Barnyardgrass ([1]; 250 g ai/ha): 80
Plant response rating, Velvetleaf ([2]; Postemergence, 125 g ai/ha): 60
Velvetleaf plant response rating [2, 18]: 70
Velvetleaf plant response rating [2, 19]: 0
Plant response rating, Velvetleaf ([2]; Preemergence, 500 g ai/ha): 100
Lambsquarters plant response rating [3, 20]: 100
Lambsquarters plant response rating [3, 21]: 100
Plant response rating (0 to 100), Lambsquarters ([3]; Postemergence, 31 g ai/ha): 0
Plant response rating, Lambsquarters [3, 22]: 0
Plant response rating, Lambsquarters [3, 23]: 0
Plant response rating, Lambsquarters [3, 24]: 50
Plant response rating, Lambsquarters [3, 25]: 100
Lambsquarters plant response rating [3, 26]: 100
Ragweed plant response rating [4, 20]: 5
Ragweed plant response rating [4, 21]: 5
Plant response rating (0 to 100), Ragweed ([4]; Postemergence, 31 g ai/ha): 0
Plant response rating (0 to 100), Ragweed ([4]; Postemergence, 62 g ai/ha): 0
Plant response rating, Ragweed [4, 23]: 0
Plant response rating, Ragweed [4, 24]: 0
Plant response rating, Ragweed [4, 25]: 0
Ragweed plant response rating [4, 26]: 50
Plant response rating, Barnyardgrass ([5]; Postemergence, 125 g ai/ha): 80
Barnyardgrass plant response rating [5, 18]: 90
Barnyardgrass plant response rating [5, 19]: 90
Plant response rating, Barnyardgrass ([5]; Preemergence, 500 g ai/ha): 100
Galium plant response rating [6, 20]: 85
Galium plant response rating [6, 21]: 90
Plant response rating, Galium [6, 25]: 80
Galium plant response rating [6, 26]: 100
Plant response rating, Crabgrass, Large ([7]; Postemergence, 125 g ai/ha): 80
Crabgrass, Large plant response rating [7, 18]: 90
Crabgrass, Large plant response rating [7, 19]: 80
Plant response rating, Crabgrass, Large ([7]; Preemergence, 500 g ai/ha): 100
Bromegrass, Downy plant response rating [8, 20]: 0
Bromegrass, Downy plant response rating [8, 21]: 10
Plant response rating (0 to 100), Bromegrass, Downy ([8]; Postemergence, 31 g ai/ha): 0
Plant response rating, Bromegrass, Downy [8, 22]: 0
Plant response rating, Bromegrass, Downy [8, 23]: 0
Plant response rating, Bromegrass, Downy [8, 24]: 10
Plant response rating, Bromegrass, Downy [8, 25]: 0
Bromegrass, Downy plant response rating [8, 26]: 50
Pigweed plant response rating [9, 20]: 100
Pigweed plant response rating [9, 21]: 100
Plant response rating (0 to 100), Pigweed ([9]; Postemergence, 31 g ai/ha): 0
Plant response rating (0 to 100), Pigweed ([9]; Postemergence, 62 g ai/ha): 0
Plant response rating, Pigweed [9, 23]: 0
Plant response rating, Pigweed [9, 24]: 45
Plant response rating, Pigweed [9, 25]: 70
Pigweed plant response rating [9, 26]: 100
Surinam Grass plant response rating [10, 20]: 80
Surinam Grass plant response rating [10, 21]: 100
Plant response rating (0 to 100), Surinam Grass ([10]; Postemergence, 31 g ai/ha): 0
Plant response rating (0 to 100), Surinam Grass ([10]; Postemergence, 62 g ai/ha): 0
Plant response rating, Surinam Grass [10, 23]: 0
Plant response rating, Surinam Grass [10, 24]: 60
Plant response rating, Surinam Grass [10, 25]: 50
Surinam Grass plant response rating [10, 26]: 100
Plant response rating, Ducksalad ([11]; 62 g ai/ha): 75
Plant response rating, Ducksalad ([11]; 250 g ai/ha): 90
Foxtail, Green plant response rating [12, 20]: 85
Foxtail, Green plant response rating [12, 21]: 90
Plant response rating (0 to 100), Foxtail, Green ([12]; Postemergence, 31 g ai/ha): 0
Plant response rating, Foxtail, Green [12, 22]: 0
Plant response rating, Foxtail, Green [12, 23]: 5
Plant response rating, Foxtail, Green [12, 24]: 80
Plant response rating, Foxtail, Green [12, 25]: 70
Foxtail, Green plant response rating [12, 26]: 100
Velvetleaf plant response rating [13, 20]: 0
Velvetleaf plant response rating [13, 21]: 70
Plant response rating (0 to 100), Velvetleaf ([13]; Postemergence, 31 g ai/ha): 0
Plant response rating (0 to 100), Velvetleaf ([13]; Postemergence, 62 g ai/ha): 0
Plant response rating, Velvetleaf [13, 23]: 0
Plant response rating, Velvetleaf [13, 24]: 20
Plant response rating, Velvetleaf [13, 25]: 0
Velvetleaf plant response rating [13, 26]: 100
Plant response rating, Foxtail, Giant ([14]; Postemergence, 125 g ai/ha): 80
Foxtail, Giant plant response rating [14, 18]: 90
Foxtail, Giant plant response rating [14, 19]: 100
Plant response rating, Foxtail, Giant ([14]; Preemergence, 500 g ai/ha): 100
Blackgrass plant response rating [15, 20]: 50
Blackgrass plant response rating [15, 21]: 100
Plant response rating (0 to 100), Blackgrass ([15]; Postemergence, 31 g ai/ha): 0
Plant response rating, Blackgrass [15, 22]: 20
Plant response rating, Blackgrass [15, 23]: 40
Plant response rating, Blackgrass [15, 24]: 70
Plant response rating, Blackgrass [15, 25]: 50
Blackgrass plant response rating [15, 26]: 100
Cupgrass, Woolly plant response rating [16, 20]: 100
Cupgrass, Woolly plant response rating [16, 21]: 100
Plant response rating (0 to 100), Cupgrass, Woolly ([16]; Postemergence, 31 g ai/ha): 0
Plant response rating, Cupgrass, Woolly [16, 22]: 0
Plant response rating, Cupgrass, Woolly [16, 23]: 0
Plant response rating, Cupgrass, Woolly [16, 24]: 50
Plant response rating, Cupgrass, Woolly [16, 25]: 90
Cupgrass, Woolly plant response rating [16, 26]: 100
Soybean plant response rating ([17]; 125 g ai/ha): 60
Plant response rating (0 to 100), Soybean ([17]; Postemergence, 31 g ai/ha): 5
Plant response rating (0 to 100), Soybean ([17]; Postemergence, 62 g ai/ha): 15
Plant response rating, Soybean [17, 23]: 20
Plant response rating, Soybean [17, 24]: 50
Plant response rating, Soybean [17, 25]: 0
Soybean plant response rating ([17]; 250 g ai/ha): 80
